Experimental data: patent US9845295B2, “Triphenylethylene compounds and uses thereof” (Purdue Research Foundation, priority 2015, dated 2017)

Assays:
recombinant human ER-β = target: T1, recombinant human ER-β (Homo sapiens, UniProt Q92731); assay: Binding affinity for recombinant human ER-β (fluorescence polarization, ES2 displacement); settings: for IC50: read-out: binding affinities for ER-β (IC50); for inhibition at 100 µM: 2 h, at 100000 nM compound, read-out: ER-β percent competition
T1 construct: purchased Invitrogen (Carlsbad, Calif.)
T1 sequence (Q92731 whole entry): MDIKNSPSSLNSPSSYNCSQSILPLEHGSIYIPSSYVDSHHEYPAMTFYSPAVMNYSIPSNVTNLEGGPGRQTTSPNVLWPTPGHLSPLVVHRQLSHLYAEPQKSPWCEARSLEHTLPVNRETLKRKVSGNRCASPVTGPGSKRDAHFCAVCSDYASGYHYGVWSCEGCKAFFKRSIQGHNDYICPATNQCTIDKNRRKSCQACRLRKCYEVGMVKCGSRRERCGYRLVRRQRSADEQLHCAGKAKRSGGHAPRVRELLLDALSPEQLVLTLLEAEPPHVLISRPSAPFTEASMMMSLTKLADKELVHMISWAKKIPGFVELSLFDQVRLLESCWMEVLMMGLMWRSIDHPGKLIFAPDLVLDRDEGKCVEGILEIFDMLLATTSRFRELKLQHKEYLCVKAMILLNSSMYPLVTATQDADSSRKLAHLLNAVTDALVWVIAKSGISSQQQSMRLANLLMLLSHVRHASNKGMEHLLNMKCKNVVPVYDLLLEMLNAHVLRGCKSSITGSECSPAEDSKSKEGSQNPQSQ
Method: (§1) Binding Affinities for Recombinant Human ER-α and ER-β.
(§2) The binding affinities of ER-α and ER-β were determined by measuring the change of polarization value when the fluorescent estrogen ligand, ES2, was displaced by the tested compounds. Experimental procedures were consistent with the protocol provided by Invitrogen. The fluorescent estrogen ligand, ES2, was provided in methanol/water (4:1, v/v) with the concentration of 1800 nM. Recombinant human ER-α and ER-β were provided in buffer (50 mM bis-tris propane, 400 mM KCl, 2 mM DTT, 1 mM EDTA and 10% glycerol), with the concentration of 734 nM and 3800 nM, respectively. All tested samples were dissolved in either methanol or DMSO. The sample solutions (1 pt) were mixed well with 49 pt of ES2 screening buffer (100 mM potassium phosphate, 100 μg/mL BGG and 0.02% NaN3). The ER-α/ES2 complex was prepared with the fluorescent estrogen ligand ES2, human recombinant ER and ES2 screening buffer with the concentrations of 9 nM ES2 and 30 nM ER-α. The ER-β/ES2 complex was prepared with the fluorescent estrogen ligand ES2, human recombinant ER-β and ES2 screening buffer with the concentrations of 9 nM ES2 and 20 nM ER-ft Reactions were initiated by adding ER/ES2 complex (50 μL) to bring the incubation volume to 100 μL and incubated for 2 h avoiding light. […] Excitation-emission wavelengths for fluorescence polarization were […]. The polarization values in the presence of the test competitors were compared with those in control, in which the competitor was replaced with vehicle. The extent of competition was expressed as the percentage of remaining polarization compared to the control.

[1] = target: T2, recombinant human aromatase (CYP19) (Homo sapiens, UniProt P11511); assay: Inhibition of recombinant human aromatase (CYP19) by microsomal incubations (MFC fluorometric substrate); format: biochemical; settings: for times more potent than 7 against aromatase: ratio of IC50 values vs compound 7; for aromatase percent inhibition: at 50000 nM compound, 50 µM
T2 construct: purchased BD Biosciences (San Jose, Calif.)
T2 sequence (P11511 1-503): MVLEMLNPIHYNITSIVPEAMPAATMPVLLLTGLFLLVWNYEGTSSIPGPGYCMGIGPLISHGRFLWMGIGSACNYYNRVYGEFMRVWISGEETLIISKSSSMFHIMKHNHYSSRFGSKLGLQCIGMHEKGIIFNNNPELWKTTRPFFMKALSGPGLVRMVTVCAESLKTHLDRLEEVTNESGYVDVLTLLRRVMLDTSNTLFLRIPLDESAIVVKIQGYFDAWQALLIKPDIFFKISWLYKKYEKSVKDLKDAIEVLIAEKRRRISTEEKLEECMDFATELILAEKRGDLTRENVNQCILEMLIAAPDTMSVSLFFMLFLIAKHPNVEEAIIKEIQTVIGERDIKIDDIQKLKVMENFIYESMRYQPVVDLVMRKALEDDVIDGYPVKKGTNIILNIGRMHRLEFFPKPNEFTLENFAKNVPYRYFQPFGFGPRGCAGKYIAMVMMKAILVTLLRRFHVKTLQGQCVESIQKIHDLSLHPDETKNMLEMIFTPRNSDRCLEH
Method: Inhibition of Recombinant Human Aromatase (CYP19) by Microsomal Incubations.
All tested samples were dissolved in either methanol or DMSO. […] All the reactions were stopped by adding 0.1 M tris base dissolved in acetonitrile (75 μL). […] The extent of enzyme inhibition was expressed as the percentage of remaining enzyme activity compared to the control.

recombinant human ER-α = target: T3, recombinant human ER-α (Homo sapiens, UniProt P03372); assay: Binding affinity for recombinant human ER-α (fluorescence polarization, ES2 displacement); settings: for IC50: read-out: binding affinities for ER-α (IC50)
T3 construct: purchased Invitrogen (Carlsbad, Calif.)
T3 sequence (P03372 1-595): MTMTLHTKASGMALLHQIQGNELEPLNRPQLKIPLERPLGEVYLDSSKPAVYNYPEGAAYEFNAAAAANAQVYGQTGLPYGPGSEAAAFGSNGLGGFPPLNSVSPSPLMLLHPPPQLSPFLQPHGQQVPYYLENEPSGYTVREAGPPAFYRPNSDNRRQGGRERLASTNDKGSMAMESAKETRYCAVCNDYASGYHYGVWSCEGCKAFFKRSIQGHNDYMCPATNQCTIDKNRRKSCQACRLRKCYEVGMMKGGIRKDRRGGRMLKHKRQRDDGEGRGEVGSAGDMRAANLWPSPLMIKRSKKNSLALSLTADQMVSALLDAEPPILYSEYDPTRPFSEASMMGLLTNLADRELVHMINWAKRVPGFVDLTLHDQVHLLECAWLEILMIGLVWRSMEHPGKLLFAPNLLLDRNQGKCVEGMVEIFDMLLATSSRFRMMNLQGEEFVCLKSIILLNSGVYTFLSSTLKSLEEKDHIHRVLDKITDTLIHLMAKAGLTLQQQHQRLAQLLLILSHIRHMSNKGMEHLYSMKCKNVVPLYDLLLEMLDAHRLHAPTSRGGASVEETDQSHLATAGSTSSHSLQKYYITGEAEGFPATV
Method: as §1, §2

[2] = Table 1, determined only for compounds with >90% competition
[3] = Table 1, mean of at least three experiments
[4] = Table 2, determined for compounds with inhibition higher than 90%

## Oc1ccc(C(Cn2ccnc2)=C(c2ccc(O)cc2)c2ccc(O)cc2)cc1 [Compound 18a, 4,4′,4″-(3-(1H-Imidazol-1-yl)prop-1-ene-1,1,2-triyl)triphenol]
Recombinant human ER-β; [2]
  EC50: 73.6 ± 29.9 nM
Recombinant human ER-β
  IC50: 56.3 to 73.6 nM
[1]; [3]
  IC50: 60 ± 4.1 nM
Recombinant human ER-α; [2]
  EC50: 97.8 ± 42.3 nM
Recombinant human ER-α
  IC50: 85.2 to 97.8 nM

## CCC(=C(c1ccc(N)cc1)c1ccc(N)cc1)c1ccc([N+](=O)[O-])cc1 [Compound 37d, 4-(1-(4-Aminophenyl)-2-(4-nitrophenyl)but-1-enyl)benzenamine]
Recombinant human ER-β; Table 2
  EC50: 70.8 ± 5.2 nM
[1]; [4]
  IC50: 62.2 ± 7.8 nM
[1]
  times more potent than 7 against aromatase: ~400 times
Recombinant human ER-α; Table 2
  EC50: 72.1 ± 42.6 nM

## CCC(=C(c1ccc(O)cc1)c1ccc(O)cc1)c1ccc([N+](=O)[O-])cc1 [Compound 37b, 4-(1-(4-Hydroxyphenyl)-2-(4-nitrophenyl)but-1-enyl)phenol]
Recombinant human ER-β; Table 2
  inhibition at 100 µM: 66%
[1]; Table 2
  aromatase percent inhibition: 78 % inhibition
Recombinant human ER-α; Table 2, at 100000 nM compound
  ER-α percent competition: 40% competition

## Nc1ccc(C(Cn2cnnc2)=C(c2ccc(O)cc2)c2ccc(O)cc2)cc1 [Compound 28, 4,4′-(2-(4-Aminophenyl)-3-(4H-1,2,4-triazol-4-yl)prop-1-ene-1,1-diyl)diphenol]
[1]; [3]
  IC50: 17.7 ± 1.2 nM
Recombinant human ER-α; Table 1, at 100 μM compound
  ER-α percent competition: 13% competition

## Nc1ccc(C(Cn2ccnc2)=C(c2ccc(O)cc2)c2ccc(O)cc2)cc1 [Compound 26, 4,4′-(2-(4-Aminophenyl)-3-(1H-imidazol-1-yl)prop-1-ene-1,1-diyl)diphenol]
Recombinant human ER-β; [2]
  EC50: 296 ± 154 nM
[1]; [3]
  IC50: 5.24 ± 0.41 nM
Recombinant human ER-α; [2]
  EC50: 1830 ± 910 nM

## CC(=C(c1ccc(N)cc1)c1ccc(N)cc1)c1ccc(N)cc1 [Compound 38c, 4-(1,2-Bis(4-aminophenyl)prop-1-enyl)benzenamine]
Recombinant human ER-β; Table 2
  inhibition at 100 µM: 77%
[1]; [4]
  IC50: 177 ± 20.2 nM
Recombinant human ER-α; Table 2, at 100000 nM compound
  ER-α percent competition: 31% competition

## Oc1ccc(C(Cn2cnnc2)=C(c2ccc(O)cc2)c2ccc(O)cc2)cc1 [Compound 20a, 4,4′,4″-(3-(4H-1,2,4-Triazol-4-yl)prop-1-ene-1,1,2-triyl)triphenol]
Recombinant human ER-β; [2]
  EC50: 1080 ± 100 nM
[1]; [3]
  IC50: 12500 ± 400 nM
Recombinant human ER-α; [2]
  EC50: 943 ± 285 nM

## Oc1ccc(C(=C(Cn2cnnc2)c2ccc(O)c(F)c2)c2ccc(O)cc2)cc1 [Compound 20b, 4,4′-(2-(3-Fluoro-4-hydroxyphenyl)-3-(4H-1,2,4-triazol-4-yl)prop-1-ene-1,1-diyl)diphenol]
[1]; [3]
  IC50: 14200 ± 1100 nM
Recombinant human ER-α; Table 1, at 100 μM compound
  ER-α percent competition: 0% competition

## Oc1ccc(C(=C(Cn2cncn2)c2ccc(O)c(F)c2)c2ccc(O)cc2)cc1 [Compound 19b, 4,4′-(2-(3-Fluoro-4-hydroxyphenyl)-3-(1H-1,2,4-triazol-1-yl)prop-1-ene-1,1-diyl)diphenol]
[1]; [3]
  IC50: 2980 ± 50 nM
Recombinant human ER-α; Table 1, at 100 μM compound
  ER-α percent competition: 2% competition

## CCC(=C(c1ccc(N)cc1)c1ccc(N)cc1)c1ccc(N)cc1 [Compound 38d, 4-(1,2-Bis(4-aminophenyl)but-1-enyl)benzenamine]
Recombinant human ER-β; Table 2
  inhibition at 100 µM: 76%
[1]; [4]
  IC50: 13.4 ± 3 nM
Recombinant human ER-α; Table 2, at 100000 nM compound
  ER-α percent competition: 25% competition

## N#CCC(=C(c1ccc(O)cc1)c1ccc(O)cc1)c1ccc(O)cc1 [Compound 17a, 3,4,4-Tris(4-hydroxyphenyl)but-3-enenitrile]
[1]; [3]
  IC50: 15200 ± 300 nM
Recombinant human ER-α; Table 1, at 100 μM compound
  ER-α percent competition: 0% competition

## CC(=C(c1ccc(N)cc1)c1ccc(N)cc1)c1ccc([N+](=O)[O-])cc1 [Compound 37c, 4-(1-(4-Aminophenyl)-2-(4-nitrophenyl)prop-1-enyl)benzenamine]
Recombinant human ER-β; Table 2
  EC50: 486 ± 240 nM
[1]; [4]
  IC50: 221 nM
[1]
  times more potent than 7 against aromatase: about 113 times
Recombinant human ER-α; Table 2
  EC50: 213 ± 53.7 nM

## Oc1ccc(C(=C(Cn2ccnc2)c2cccc(O)c2)c2ccc(O)cc2)cc1 [Compound 32, 4,4′-(2-(3-Hydroxyphenyl)-3-(1H-imidazol-1-yl)prop-1-ene-1,1-diyl)diphenol]
[1]; [3]
  IC50: 60.4 ± 1.7 nM
Recombinant human ER-α; Table 1, at 100 μM compound
  ER-α percent competition: 0% competition

## CCC(=C(c1ccc(O)cc1)c1ccc(O)cc1)c1ccc(N)cc1 [Compound 38b, 4-(2-(4-Aminophenyl)-1-(4-hydroxyphenyl)but-1-enyl)phenol]
Recombinant human ER-β; Table 2
  EC50: 1260 ± 424 nM
[1]; [4]
  IC50: 8.8 nM
Recombinant human ER-α; Table 2
  EC50: 1710 ± 630 nM

## Oc1ccc(C(=C(Cn2ccnc2)c2ccc(O)c(F)c2)c2ccc(O)cc2)cc1 [Compound 18b, 4,4′-(2-(3-Fluoro-4-hydroxyphenyl)-3-(1H-imidazol-1-yl)prop-1-ene-1,1-diyl)diphenol]
Recombinant human ER-β; [2]
  EC50: 56.3 ± 17.8 nM
Recombinant human ER-β
  IC50: 56.3 to 73.6 nM
[1]; [3]
  IC50: 94.4 ± 3.5 nM
Recombinant human ER-α; [2]
  EC50: 85.2 ± 14.2 nM
Recombinant human ER-α
  IC50: 85.2 to 97.8 nM

## CC(=C(c1ccc(O)cc1)c1ccc(O)cc1)c1ccc([N+](=O)[O-])cc1 [Compound 37a, 4-(1-(4-Hydroxyphenyl)-2-(4-nitrophenyl)prop-1-enyl)phenol]
Recombinant human ER-β; Table 2
  inhibition at 100 µM: 55%
[1]; Table 2
  aromatase percent inhibition: 75 % inhibition
Recombinant human ER-α; Table 2, at 100000 nM compound
  ER-α percent competition: 19% competition

## CC(=C(c1ccc(O)cc1)c1ccc(O)cc1)c1ccc(N)cc1 [Compound 38a, 4-(2-(4-Aminophenyl)-1-(4-hydroxyphenyl)prop-1-enyl)phenol]
Recombinant human ER-β; Table 2
  EC50: 857 ± 389 nM
[1]; [4]
  IC50: 230 nM
Recombinant human ER-α; Table 2
  EC50: 11000 ± 827 nM

## Nc1cccc(C(Cn2ccnc2)=C(c2ccc(O)cc2)c2ccc(O)cc2)c1 [Compound 35, 4,4′-(2-(3-Aminophenyl)-3-(1H-imidazol-1-yl)prop-1-ene-1,1-diyl)diphenol]
[1]; [3]
  IC50: 439 ± 16 nM
Recombinant human ER-α; Table 1, at 100 μM compound
  ER-α percent competition: 60% competition

## Oc1ccc(C(Cn2cncn2)=C(c2ccc(O)cc2)c2ccc(O)cc2)cc1 [Compound 19a, 4,4′,4″-(3-(1H-1,2,4-Triazol-1-yl)prop-1-ene-1,1,2-triyl)triphenol]
[1]; [3]
  IC50: 3030 ± 150 nM
Recombinant human ER-α; Table 1, at 100 μM compound
  ER-α percent competition: 45% competition

## Nc1ccc(C(Cn2cncn2)=C(c2ccc(O)cc2)c2ccc(O)cc2)cc1 [Compound 27, 4,4′-(2-(4-Aminophenyl)-3-(1H-1,2,4-triazol-1-yl)prop-1-ene-1,1-diyl)diphenol]
[1]; [3]
  IC50: 104 ± 9 nM
Recombinant human ER-α; Table 1, at 100 μM compound
  ER-α percent competition: 0% competition
